Assay [1] deals with WT mice. Kind of assay: Renal ischemia and reperfusion in WT mice with renalase peptide RP-H220. It counts as in vivo, mouse. The conditions noted are these: 30 minutes of renal ischemia and reperfusion. The protocol: FIG. 3 is a chart showing that ERK or AKT inhibition abrogates protective effect of renalase peptide: WT mice subjected to sham surgery or to 30 minutes of renal ischemia and reperfusion; RP-[…] or vehicle (saline) injected 10 minutes before renal ischemia. ERK inhibitor PD98059 or the PI3K/AKT inhibitor wortmannin abrogated RP-[…]'s protective effect.

Assay [2] relates to MiaPaCa2 cell. The conditions noted are these: pretreatment, MiaPaCa2, WST-1, 72 hrs. Background: Tetrazolium assays rely on reduction of a dye to a coloured formazan, in cell work by metabolically active cells.
Procedure: FIG. 24B is a chart depicting cell viability relative to control: MiaPaCa2 cell serum starved and then treated with BSA (30 μg/ml) or rRNLS (30 μg/ml), with and without pretreatment with MEK1 inhibitor U0126, and cell viability measured 72 hrs later using the WST-1 assay; n=6, * indicates p<0.005.
For some studies, cell viability was determined using the WST-1 reagent (Roche Diagnostics, Indianapolis, Ind., USA) as previously described (Wang et al., 2014 Journal of the American Society of Nephrology. DOI:10.1681/asn.2013060665).

For `COc1cccc(-c2cc(=O)c3ccccc3o2)c1N` [PD98059], the “effect on RP-H220's protective effect” value in assay [1] is “abrogated RP-H220's protective effect”.

Take `N#CC(=C(/N)Sc1ccccc1N)/C(C#N)=C(\N)Sc1ccccc1N` [U0126]: the “effect on rRNLS' protective effect” value in assay [2] was “abrogated rRNLS' protective effect”.

Values taken from patent publication US11370846B2, “Compositions and methods to regulate Renalase in the treatment of cancer” (Yale University, priority 2014, dated 2022).
